The text below walks through data of patent publication US20240216369A1, “THE USE OF A SPLICING MODULATOR FOR A TREATMENT SLOWING PROGRESSION OF HUNTINGTON'S DISEASE” (Novartis AG, priority 2019, published 2024).

Experiment [1] concerns mHTT. The experiment in a line: Mutant and total HTT multiplex HTRF assay in Q48 HTT human embryonic stem cell line: mHTT. The note with it: Q48 HTT hESC, 48 hours. In kind it is cell-based. Here is the method: (§1) The multiplex assay is performed in human embryonic stem cells (hESCs) which have been derived by Genea Biocells from human blastocysts of HD donors. Cells are plated at a density of 10,000 cells/well into 384-well collagen coated plates and left to adhere for 24 hours, compounds 1 to 82 are then added to cells and incubated for 48 hours (37° C., 5% CO2), cells are then lysed and the contents split into a black 384-well plate.
(§2) The black plates have a combination of HTRF labeled monoclonal antibodies added which recognize discrete areas of the HTT protein, the 2B7-Tb “donor” antibody (0.2 ng/well) recognizes a sequence at the N-terminus of the protein, an MW1-Alexa488 “acceptor 1” antibody (30 ng/well) recognizes an area in the polyQ region, whereas a MAB2166-d2 “acceptor 2” antibody (6 ng/well) recognizes a sequence beyond the polyQ region. The 2B7 antibody was obtained from Coriell (CH02024), the MW1 antibody from Millipore (MABN2427), and the MAB2166 antibody from Millipore (1HU-4C8).
(§3) These detection reagents are incubated with the cell lysate at room temperature for 4-6 hours before having their fluorescence quantified at 615 nm (donor) and 535 nm and 665 nm (acceptor 1 and 2 respectively). The donor/acceptor ratio between these signals indicates the relative quantities of mHTT and tHTT proteins. As shown in the Table 1, compounds 1 to 82 as described therein and in Table 2, had the following pIC50 values.

Experiment [2] deals with tHTT. In words: Mutant and total HTT multiplex HTRF assay in Q48 HTT human embryonic stem cell line: tHTT. The note with it: Q48 HTT hESC, 48 hours. In kind it is cell-based. The procedure:
as §1, §2, §3

As for `Cc1nc2cc(O)c(-c3ccc(N(C)C4CC(C)(C)NC(C)(C)C4)nn3)cc2nc1C` [Compound 42, 2,3-dimethyl-7-(6-(methyl(2,2,6,6-tetramethylpiperidin-4-yl)amino)pyridazin-3-yl)quinoxalin-6-ol], in experiment [1], the “Rating (based on mHTT potency)” value was “*** (a pIC50 value between 6.5 and 7.0 is indicated by three stars (***))”; the “mHTT pIC50” value was found to be 6.92. Further, the “tHTT pIC50” value in experiment [2] worked out at 6.885.

As for `CNc1ccn(-c2ccc(-c3nnc(N(C)C4CC(C)(C)NC(C)(C)C4)s3)c(O)c2)n1` [Compound 43, 2-(5-(methyl(2,2,6,6-tetramethylpiperidin-4-yl)amino)-1,3,4-thiadiazol-2-yl)-5-(3-(methylamino)-1H-pyrazol-1-yl)phenol], in experiment [1], the “Rating (based on mHTT potency)” value was “*** (a pIC50 value between 6.5 and 7.0 is indicated by three stars (***))”; the “mHTT pIC50” value turned out to be 6.917. Besides, the “tHTT pIC50” value in experiment [2] worked out at 6.852.

With `CCN1CCC(c2cn3c(=O)cc(-c4ccc5nn(C)cc5c4)nc3c(C)n2)CC1` [Compound 44, 7-(1-ethylpiperidin-4-yl)-9-methyl-2-(2-methyl-2H-indazol-5-yl)-4H-pyrazino[1,2-a]pyrimidin-4-one], in experiment [1], the “Rating (based on mHTT potency)” value was “*** (a pIC50 value between 6.5 and 7.0 is indicated by three stars (***))”; the “mHTT pIC50” value was 6.869. Moreover, the “tHTT pIC50” value in experiment [2] is 6.7695.

Consider `CN(c1nnc(-c2c(F)cc(-c3cn[nH]c3)cc2F)s1)C1CC(C)(C)NC(C)(C)C1` [Compound 45, 5-(2,6-difluoro-4-(1H-pyrazol-4-yl)phenyl)-N-methyl-N-(2,2,6,6-tetramethylpiperidin-4-yl)-1,3,4-thiadiazol-2-amine], for which, in experiment [1], the “Rating (based on mHTT potency)” value was “*** (a pIC50 value between 6.5 and 7.0 is indicated by three stars (***))”; the “mHTT pIC50” value turned out to be 6.861. In addition, the “tHTT pIC50” value in experiment [2] was found to be 6.7715.

`Cc1cnc2cc(O)c(-c3ccc(N(C)C4CC(C)(C)NC(C)(C)C4)nn3)cc2n1` [Compound 46, 2-methyl-7-(6-(methyl(2,2,6,6-tetramethylpiperidin-4-yl)amino)pyridazin-3-yl)quinoxalin-6-ol]: in experiment [1], the “Rating (based on mHTT potency)” value is “*** (a pIC50 value between 6.5 and 7.0 is indicated by three stars (***))”; the “mHTT pIC50” value was determined as 6.8485. For the same molecule, the “tHTT pIC50” value in experiment [2] was 6.778.

As for `Cc1ccc2cc(-c3ccc(N(C)C4CC(C)(C)NC(C)(C)C4)nn3)c(O)cc2n1` [Compound 47, 2-methyl-6-(6-(methyl(2,2,6,6-tetramethylpiperidin-4-yl)amino)pyridazin-3-yl)quinolin-7-ol], in experiment [1], the “Rating (based on mHTT potency)” value was “*** (a pIC50 value between 6.5 and 7.0 is indicated by three stars (***))”; the “mHTT pIC50” value stood at 6.8415. Also, the “tHTT pIC50” value in experiment [2] is listed as 6.92.

Regarding `CC1(C)CC(Nc2ccc(-c3cc4cc(C#N)ccc4s3)nn2)CC(C)(C)N1` [Compound 48, 2-(6-(2,2,6,6-tetramethylpiperidin-4-ylamino)pyridazin-3-yl)benzo[b]thiophene-5-carbonitrile], in experiment [1], the “Rating (based on mHTT potency)” value is “*** (a pIC50 value between 6.5 and 7.0 is indicated by three stars (***))”; the “mHTT pIC50” value is recorded as 6.822. For the same molecule, in experiment [2], the “tHTT pIC50” value amounted to 6.9.

Take `CN(c1nnc(-c2ccc(-c3ccn(C)c(=O)c3)cc2O)s1)C1CC(C)(C)NC(C)(C)C1` [Compound 49, 4-(3-hydroxy-4-(5-(methyl(2,2,6,6-tetramethylpiperidin-4-yl)amino)-1,3,4-thiadiazol-2-yl)phenyl)-1-methylpyridin-2(1H)-one]: in experiment [1], the “Rating (based on mHTT potency)” value is “*** (a pIC50 value between 6.5 and 7.0 is indicated by three stars (***))”; the “mHTT pIC50” value worked out at 6.819. In addition, in experiment [2], the “tHTT pIC50” value was determined as 6.6665.

`COc1ccnc2cc(-c3ccc(N(C)C4CC(C)(C)NC(C)(C)C4)nn3)c(O)cc12` [Compound 50, 4-methoxy-7-(6-(methyl(2,2,6,6-tetramethylpiperidin-4-yl)amino)pyridazin-3-yl)quinolin-6-ol]: in experiment [1], the “Rating (based on mHTT potency)” value is “*** (a pIC50 value between 6.5 and 7.0 is indicated by three stars (***))”; the “mHTT pIC50” value was found to be 6.8055. Moreover, in experiment [2], the “tHTT pIC50” value was 6.7835.

In the case of `CN(c1ccc(-c2cc3c(C(N)=O)nccc3cc2O)nn1)C1CC(C)(C)NC(C)(C)C1` [Compound 51, 6-hydroxy-7-(6-(methyl(2,2,6,6-tetramethylpiperidin-4-yl)amino)pyridazin-3-yl)isoquinoline-1-carboxamide], in experiment [1], the “Rating (based on mHTT potency)” value is “*** (a pIC50 value between 6.5 and 7.0 is indicated by three stars (***))”; the “mHTT pIC50” value stood at 6.801. Moreover, in experiment [2], the “tHTT pIC50” value is recorded as 6.779.

`CN(c1ccc(-c2cc3ccncc3cc2O)nn1)C1CC(C)(C)NC(C)(C)C1` [Compound 52, 6-(6-(methyl(2,2,6,6-tetramethylpiperidin-4-yl)amino)pyridazin-3-yl)isoquinolin-7-ol]: in experiment [1], the “Rating (based on mHTT potency)” value was “*** (a pIC50 value between 6.5 and 7.0 is indicated by three stars (***))”; the “mHTT pIC50” value came out at 6.7625. In addition, in experiment [2], the “tHTT pIC50” value was found to be 6.6455.

Consider `Cc1cc(C2CC2)c2cc(-c3ccc(N(C)C4CC(C)(C)NC(C)(C)C4)nn3)c(O)cc2n1` [Compound 53, 4-cyclopropyl-2-methyl-6-(6-(methyl(2,2,6,6-tetramethylpiperidin-4-yl)amino)pyridazin-3-yl)quinolin-7-ol], for which, in experiment [1], the “Rating (based on mHTT potency)” value was “*** (a pIC50 value between 6.5 and 7.0 is indicated by three stars (***))”; the “mHTT pIC50” value amounted to 6.746. Also, the “tHTT pIC50” value in experiment [2] was 6.7095.

Regarding `Cc1nc2cc(-c3ccc(N(C)C4CC(C)(C)NC(C)(C)C4)nn3)c(O)cc2[nH]1` [Compound 54, 2-methyl-5-(6-(methyl(2,2,6,6-tetramethylpiperidin-4-yl)amino)pyridazin-3-yl)-1H-benzo[d]imidazol-6-ol], in experiment [1], the “Rating (based on mHTT potency)” value was “*** (a pIC50 value between 6.5 and 7.0 is indicated by three stars (***))”; the “mHTT pIC50” value came to 6.728. The “tHTT pIC50” value in experiment [2] stood at 6.753.

Take `CN(c1ccc(-c2cc3c(=O)nc[nH]c3cc2O)nn1)C1CC(C)(C)NC(C)(C)C1` [Compound 55, 7-hydroxy-6-(6-(methyl(2,2,6,6-tetramethylpiperidin-4-yl)amino)pyridazin-3-yl)quinazolin-4(1H)-one]: in experiment [1], the “Rating (based on mHTT potency)” value was “*** (a pIC50 value between 6.5 and 7.0 is indicated by three stars (***))”; the “mHTT pIC50” value came to 6.71. Further, in experiment [2], the “tHTT pIC50” value is 6.7485.

Regarding `CCc1cnc2cc(O)c(-c3ccc(N(C)C4CC(C)(C)NC(C)(C)C4)nn3)cc2c1` [Compound 56, 3-ethyl-6-(6-(methyl(2,2,6,6-tetramethylpiperidin-4-yl)amino)pyridazin-3-yl)quinolin-7-ol], in experiment [1], the “Rating (based on mHTT potency)” value was “*** (a pIC50 value between 6.5 and 7.0 is indicated by three stars (***))”; the “mHTT pIC50” value is 6.709. Besides, the “tHTT pIC50” value in experiment [2] came out at 6.709.

`COc1ccc2cc(-c3ccc(N(C)C4CC(C)(C)NC(C)(C)C4)nn3)c(O)cc2c1` [Compound 57, 7-methoxy-3-(6-(methyl(2,2,6,6-tetramethylpiperidin-4-yl)amino)pyridazin-3-yl)naphthalen-2-ol]: in experiment [1], the “Rating (based on mHTT potency)” value is “*** (a pIC50 value between 6.5 and 7.0 is indicated by three stars (***))”; the “mHTT pIC50” value came out at 6.7085. Further, the “tHTT pIC50” value in experiment [2] is recorded as 6.791.

As to `COc1cc(-c2cn[nH]c2)cc(O)c1-c1ccc(N(C)C2CC(C)(C)NC(C)(C)C2)nn1` [Compound 58, 3-methoxy-2-(6-(methyl(2,2,6,6-tetramethylpiperidin-4-yl)amino)pyridazin-3-yl)-5-(1H-pyrazol-4-yl)phenol], in experiment [1], the “Rating (based on mHTT potency)” value is “*** (a pIC50 value between 6.5 and 7.0 is indicated by three stars (***))”; the “mHTT pIC50” value stood at 6.698. Besides, in experiment [2], the “tHTT pIC50” value was determined as 6.6555.

Take `Cc1nc(-c2ccc(-c3ccc(N(C)C4CC(C)(C)NC(C)(C)C4)nn3)c(O)c2)c[nH]1` [Compound 59, 2-(6-(methyl(2,2,6,6-tetramethylpiperidin-4-yl)amino)pyridazin-3-yl)-5-(2-methyl-1H-imidazol-4-yl)phenol]: in experiment [1], the “Rating (based on mHTT potency)” value was “*** (a pIC50 value between 6.5 and 7.0 is indicated by three stars (***))”; the “mHTT pIC50” value is 6.678. Moreover, the “tHTT pIC50” value in experiment [2] was found to be 6.5065.

For `Cc1ncc2cc(-c3ccc(N(C)C4CC(C)(C)NC(C)(C)C4)nn3)c(O)cc2n1` [Compound 60, 2-methyl-6-(6-(methyl(2,2,6,6-tetramethylpiperidin-4-yl)amino)pyridazin-3-yl)quinazolin-7-ol], in experiment [1], the “Rating (based on mHTT potency)” value is “*** (a pIC50 value between 6.5 and 7.0 is indicated by three stars (***))”; the “mHTT pIC50” value is 6.6725. The “tHTT pIC50” value in experiment [2] was found to be 6.7.

With `CN(c1ccc(-c2ccc(C3=CCNCC3)cc2O)nn1)C1CC(C)(C)NC(C)(C)C1` [Compound 61, 2-(6-(methyl(2,2,6,6-tetramethylpiperidin-4-yl)amino)pyridazin-3-yl)-5-(1,2,3,6-tetrahydropyridin-4-yl)phenol], in experiment [1], the “Rating (based on mHTT potency)” value is “*** (a pIC50 value between 6.5 and 7.0 is indicated by three stars (***))”; the “mHTT pIC50” value is listed as 6.661. Further, in experiment [2], the “tHTT pIC50” value was determined as 6.659.
